In US20240226228A1, “ANTIMICROBIAL PEPTOID HAVING IMPROVED SELECTIVITY AND ANTIMICROBIAL COMPOSITION COMPRISING SAME” (priority 2021, published 2024):
In brackets after ≈: the same amount, converted by molar mass. Where two headings read alike, the source gives them in different places. Where a SMILES comes first, the peptide text is derived from it. [ ]: non-standard residue; d: D form. Gly(N(CH2)2(3-indolyl)) = O=C(O)CNCCc1c[nH]c2ccccc12; Nspe = C[C@H](NCC(=O)O)c1ccccc1; Nlys = NCCCCNCC(=O)O

How the values were obtained:
E. coli ATCC25922 = system: E. coli ATCC25922
Procedure, shortened: (§1)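 Cation-adjusted MHB2 cultures (18 h, subcultured 4 h) adjusted to 2×10^5–5×10^5 CFU/mL in medium with 0.02% BSA and 0.001% acetic acid.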

S. aureus ATCC 25923 = system: S. aureus ATCC 25923
Procedure, shortened: as §1

red blood cells = assay: Hemolysis assay; assay type: cell-based, Sprague-Dawley mouse
Procedure, shortened: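 Peptoid is mixed with 10% (v/v) PBS-washed erythrocytes (male Sprague-Dawley […], 13 weeks) and held 1 h at 37 °C. Hemolysis is calculated from 540 nm absorbance of the supernatant, with PBS as 0% and Triton X-100 as 100%.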

[1] = Tables 11-13, 24 hours at 37° C., maximum concentration 25 μM
[2] = Table 18, TFA salt vs counter ion-substituted (HCl, AcOH) peptoids

| SMILES | MIC E. coli ATCC25922 (E. coli ATCC25922; [1]) | MIC S. aureus ATCC 25923 (S. aureus ATCC 25923; [1]) | HC10 (red blood cells) | HC50 (red blood cells) | Hmax (100 μM) (red blood cells) | MIC E. coli ATCC25922 (E. coli ATCC25922; [2]) | MIC S. aureus ATCC 25923 (S. aureus ATCC 25923; [2]) |
| --- | --- | --- | --- | --- | --- | --- | --- |
| C[C@@H](c1ccccc1)N(CC(N)=O)C(=O)CN(C(=O)CN(CCCCN)C(=O)CN(C(=O)CN(CCCCN)C(=O)CN(CCCCN)C(=O)CN(CCc1c[nH]c2ccccc12)C(=O)CN(C(=O)CN(CCCCN)C(=O)CN(C(=O)CN(C(=O)CNCCCCN)[C@@H](C)c1ccccc1)[C@@H](C)c1ccccc1)[C@@H](C)c1ccccc1)[C@@H](C)c1ccccc1)[C@@H](C)c1ccccc1 [Peptoid 25] | >25 µM | 3.1 µM (≈ 5.66 µg/mL) | >100/>100 μM | >100/>100 μM | 2.7 ± 0.4% | – | – |
| C[C@@H](c1ccccc1)N(CC(N)=O)C(=O)CN(C(=O)CN(CCCCN)C(=O)CN(C(=O)CN(C(=O)CN(CCCCN)C(=O)CN(CCc1c[nH]c2ccccc12)C(=O)CN(CCCCN)C(=O)CN(CCCCN)C(=O)CN(C(=O)CN(C(=O)CNCCCCN)[C@@H](C)c1ccccc1)[C@@H](C)c1ccccc1)[C@@H](C)c1ccccc1)[C@@H](C)c1ccccc1)[C@@H](C)c1ccccc1 [Peptoid 26] | >25 µM | 6.3 µM (≈ 11.5 µg/mL) | >100/>100 μM | >100/>100 μM | 0.7 ± 0.1% | – | – |
| C[C@@H](c1ccccc1)N(CC(N)=O)C(=O)CN(C(=O)CN(CCCCN)C(=O)CN(C(=O)CN(C(=O)CN(CCCCN)C(=O)CN(CCc1c[nH]c2ccccc12)C(=O)CN(C(=O)CN(CCCCN)C(=O)CN(C(=O)CN(CCCCN)C(=O)CNCCCCN)[C@@H](C)c1ccccc1)[C@@H](C)c1ccccc1)[C@@H](C)c1ccccc1)[C@@H](C)c1ccccc1)[C@@H](C)c1ccccc1 [Peptoid 27] | 25 µM (≈ 45.6 µg/mL) | 3.1 µM (≈ 5.66 µg/mL) | >100/>100 μM | >100/>100 μM | 5.9 ± 0.2% | – | – |
| C[C@@H](c1ccccc1)N(CC(=O)N(CCCCN)CC(=O)N(CCCCN)CC(=O)N(CCc1c[nH]c2ccccc12)CC(=O)N(CCc1c[nH]c2ccccc12)CC(N)=O)C(=O)CN(CCCCN)C(=O)CN(C(=O)CN(C(=O)CN(CCCCN)C(=O)CN(C(=O)CN(C(=O)CNCCCCN)[C@@H](C)c1ccccc1)[C@@H](C)c1ccccc1)[C@@H](C)c1ccccc1)[C@@H](C)c1ccccc1 [Peptoid 28] (H-[Nlys][Nspe][Nspe][Nlys][Nspe][Nspe][Nlys][Nspe][Nlys][Nlys][Gly(N(CH2)2(3-indolyl))][Gly(N(CH2)2(3-indolyl))]-NH2) | 12.5 µM (≈ 23.3 µg/mL) | 6.3 µM (≈ 11.7 µg/mL) | >100/>100 μM | >100/>100 μM | 8.9 ± 1.4% | – | – |
| C[C@@H](c1ccccc1)N(CC(=O)N(CCCCN)CC(=O)N(CC(=O)N(CC(=O)N(CCCCN)CC(=O)N(CCc1c[nH]c2ccccc12)CC(=O)N(CCc1c[nH]c2ccccc12)CC(N)=O)[C@@H](C)c1ccccc1)[C@@H](C)c1ccccc1)C(=O)CN(CCCCN)C(=O)CN(CCCCN)C(=O)CN(C(=O)CN(C(=O)CNCCCCN)[C@@H](C)c1ccccc1)[C@@H](C)c1ccccc1 [Peptoid 30] (H-[Nlys][Nspe][Nspe][Nlys][Nlys][Nspe][Nlys][Nspe][Nspe][Nlys][Gly(N(CH2)2(3-indolyl))][Gly(N(CH2)2(3-indolyl))]-NH2) | 12.5 µM (≈ 23.3 µg/mL) | 3.1 µM (≈ 5.78 µg/mL) | >100/>100 μM | >100/>100 μM | 8.4 ± 0.5% | – | – |
| C[C@@H](c1ccccc1)N(CC(=O)N(CCCCN)CC(=O)N(CC(=O)N(CC(=O)N(CCCCN)CC(=O)N(CC(=O)N(CC(=O)N(CCCCN)CC(=O)N(CCc1c[nH]c2ccccc12)CC(=O)N(CCc1c[nH]c2ccccc12)CC(N)=O)[C@@H](C)c1ccccc1)[C@@H](C)c1ccccc1)[C@@H](C)c1ccccc1)[C@@H](C)c1ccccc1)C(=O)CN(CCCCN)C(=O)CNCCCCN [Peptoid 31] (H-[Nlys][Nlys][Nspe][Nlys][Nspe][Nspe][Nlys][Nspe][Nspe][Nlys][Gly(N(CH2)2(3-indolyl))][Gly(N(CH2)2(3-indolyl))]-NH2) | 6.3 µM (≈ 11.7 µg/mL) | 3.1 µM (≈ 5.78 µg/mL) | 59.0 µM | > 100 µM | 18.4 ± 5.0% | – | – |
| C[C@@H](c1ccccc1)N(CC(N)=O)C(=O)CN(C(=O)CN(CCCCN)C(=O)CN(C(=O)CN(CCCCN)C(=O)CN(CCCCN)C(=O)CN(C(=O)CN(C(=O)CN(CCCCN)C(=O)CN(CCc1c[nH]c2ccccc12)C(=O)CN(CCc1c[nH]c2ccccc12)C(=O)CNCCCCN)[C@@H](C)c1ccccc1)[C@@H](C)c1ccccc1)[C@@H](C)c1ccccc1)[C@@H](C)c1ccccc1 [Peptoid 33] | 12.5 µM (≈ 23.3 µg/mL) | 3.1 µM (≈ 5.78 µg/mL) | >100/>100 μM | >100/>100 μM | 5.0 ± 0.2% | – | – |
| C[C@@H](c1ccccc1)N(CC(N)=O)C(=O)CN(C(=O)CN(CCCCN)C(=O)CN(C(=O)CN(C(=O)CN(CCCCN)C(=O)CN(C(=O)CN(CCCCN)C(=O)CN(CCCCN)C(=O)CN(CCc1c[nH]c2ccccc12)C(=O)CN(CCc1c[nH]c2ccccc12)C(=O)CNCCCCN)[C@@H](C)c1ccccc1)[C@@H](C)c1ccccc1)[C@@H](C)c1ccccc1)[C@@H](C)c1ccccc1 [Peptoid 34] | 25 µM (≈ 46.6 µg/mL) | 3.1 µM (≈ 5.78 µg/mL) | >100/>100 μM | >100/>100 μM | 8.5 ± 1.1% | – | – |
| C[C@@H](c1ccccc1)N(CC(=O)N(CCCCN)CC(=O)N(CC(=O)N(CC(=O)N(CCCCN)CC(=O)N(CC(=O)N(CC(=O)N(CCCCN)CC(N)=O)[C@@H](C)c1ccccc1)[C@@H](C)c1ccccc1)[C@@H](C)c1ccccc1)[C@@H](C)c1ccccc1)C(=O)CN(C(=O)CN(CCCCN)C(=O)CN(CCc1c[nH]c2ccccc12)C(=O)CNCCc1c[nH]c2ccccc12)[C@@H](C)c1ccccc1 [Peptoid 37-1] (H-[Gly(N(CH2)2(3-indolyl))][Gly(N(CH2)2(3-indolyl))][Nlys][Nspe][Nspe][Nlys][Nspe][Nspe][Nlys][Nspe][Nspe][Nlys]-NH2) | – | – | 14.4 µM | 56.5 µM | 86.6 ± 5.7% | 6.3 µM | 3.1 µM |
| C[C@@H](c1ccccc1)N(CC(=O)N(CCCCN)CC(=O)N(CC(=O)N(CC(=O)N(CCCCN)CC(=O)N(CC(=O)N(CC(=O)N(CCCCN)CC(N)=O)[C@@H](C)c1ccccc1)[C@@H](C)c1ccccc1)[C@@H](C)c1ccccc1)[C@@H](C)c1ccccc1)C(=O)CN(C(=O)CN(CCCCN)C(=O)CN(CCc1c[nH]c2ccccc12)C(=O)CNCCc1c[nH]c2ccccc12)[C@@H](C)c1ccccc1 [Peptoid 37-2] (H-[Gly(N(CH2)2(3-indolyl))][Gly(N(CH2)2(3-indolyl))][Nlys][Nspe][Nspe][Nlys][Nspe][Nspe][Nlys][Nspe][Nspe][Nlys]-NH2) | – | – | 12.5 µM | 26.0 µM | 98.9 ± 8.0% | 6.3 µM | 1.6 µM |
